Test results taken from patent US20090215625A1, “Combinations of Herbicides and Safeners” (priority 2008, published 2009).
Like-named read-outs stand apart in the source and are kept apart here.

Tests used:
Lamium amplexicaule = assay: Broadleaf weed control (JSM 08-5), Lamium amplexicaule; format: in vivo
Description: (§1) Treatments were applied with a CO2 pressurized spray system at a volume of 280 L ha^−1. A four nozzle spray boom utilizing 8002 XR flat fan nozzles (Spraying Systems, Inc, Wheaton, Ill.) on 25 cm spacing and a height of 25 cm was utilized. Spray pressure at the nozzle was 22 PSI and ground speed was 5 km/h. All treatments were applied with 0.25% v/v non-ionic surfactant (X-77 Non-Ionic Surfactant; Helena Chemical Company, Memphis, Tenn.).

Stellaria media = assay: Broadleaf weed control (JSM 08-5), Stellaria media; format: in vivo
Description: as §1

Geranium carolinianum = assay: Broadleaf weed control (JSM 08-5), Geranium carolinianum; format: in vivo
Description: as §1

[1] = test system: 'Palmetto' St. Augustinegrass; settings: in vivo
large crabgrass = assay: Large crabgrass control comparison; format: in vivo, Digitaria spp.; settings: 1 to 2 tiller growth stage
'Meyer' zoysiagrass [2] = settings: in vivo
'Tifway' bermudagrass [3] = settings: in vivo
'Meyer' zoysiagrass [4] = assay: Run two visual turfgrass injury, zoysiagrass (JSM08-15)
[5] = test system: 'Palmetto' St. Augustinegrass; assay: Run two visual turfgrass injury, St. Augustinegrass (JSM08-14)
'Tifway' bermudagrass [6] = assay: Run one visual turfgrass injury, bermudagrass (JSM 08-4); settings: Rate 0.25 kg ai/ha
'Meyer' zoysiagrass [7] = assay: Run one visual turfgrass injury, zoysiagrass (JSM08-6); settings: Rate 0.25 kg ai/ha
[8] = test system: 'Palmetto' St. Augustinegrass; assay: Run one visual turfgrass injury, St. Augustinegrass (JSM 08-8); settings: Rate 0.25 kg ai/ha
St. Augustinegrass turf = assay: Safening comparison of propoxycarbazone and flucarbazone, St. Augustinegrass injury
'Tifway' bermudagrass [9] = assay: Run two visual turfgrass injury, bermudagrass (JSM 08-14)
bermudagrass turf [10] = assay: Safening comparison of propoxycarbazone and flucarbazone, bermudagrass injury
St. Augustinegrass = settings: in vivo
bermudagrass turf [11] = assay: Tembotrione safening with flucarbazone, bermudagrass injury; set-up: species or system Cynodon dacytlon; settings: in vivo
Description: as §1
Tembotrione is a carotenoid biosynthesis inhibiting herbicide that injures bermudagrass. Table 5 refers to research data evaluating the safening of flucarbazone when combined with tembotrione. Tembotrione applied at 0.023 to 0.092 kg/ha injured bermudagrass turf from 30 to 72%; with the greatest injury occurring at 0.092. All tembotrione plus flucarbazone treatments reduced bermudagrass injury when compared to the equivalent rates of tembotrione alone. Tembotrione (at 0.092 kg/ha) plus flucarbazone at 0.015 or 0.029 kg/ha injured bermudagrass 20; however, flucarbazone at 0.059 reduced bermudagrass injury greater to 8%. It is likely that higher rates of flucarbazone will be needed to provide adequate bermudagrass safening as higher rates of tembotrione are applied.

Structure (SMILES): COc1c(Cl)ccc(Cl)c1C(=O)O [Dicamba]
- Weed Control 21 DAT Lamium amplexicaule (Lamium amplexicaule; Rate 0.28 kg ai/ha): 10%
- Weed Control 21 DAT Stellaria media (Stellaria media; Rate 0.28 kg ai/ha): 65%
- Weed Control 21 DAT Geranium carolinianum (Geranium carolinianum; Rate 0.28 kg ai/ha): 73%

Structure (SMILES): COc1nn(C(=O)NS(=O)(=O)c2ccccc2OC(F)(F)F)c(=O)n1C [Flucarbazone, 4,5-dihydro-3-methoxy-4-methyl-5-oxo-N-[2-(trifluoromethoxy)phenylsulfonyl]-1H-1,2,4-triazole-1-carboxamide]
- Weed Control 21 DAT Lamium amplexicaule (Lamium amplexicaule; Rate 0.007 kg ai/ha): 3%
- Weed Control 21 DAT Lamium amplexicaule (Lamium amplexicaule; Rate 0.029 kg ai/ha): 10%
- Weed Control 21 DAT Stellaria media (Stellaria media; Rate 0.007 kg ai/ha): 35%
- Weed Control 21 DAT Stellaria media (Stellaria media; Rate 0.029 kg ai/ha): 62%
- Visual Turfgrass Injury ~13 DAT St. Augustinegrass (JSM 08-8) [1]: 0%
- Large Crabgrass Control 21 DAT (large crabgrass; Rate 0.009 kg ai/ha): 17%
- Large Crabgrass Control 51 DAT (large crabgrass; Rate 0.009 kg ai/ha): 0%
- Visual Turfgrass Injury ~13 DAT Zoysiagrass (JSM08-6) ('Meyer' zoysiagrass [2]): 0%
- Visual Turfgrass Injury ~20 DAT Zoysiagrass (JSM08-6) ('Meyer' zoysiagrass [2]): 0%
- Visual Turfgrass Injury ~13 DAT Bermudagrass (JSM 08-4) ('Tifway' bermudagrass [3]): 0%
- Visual Turfgrass Injury ~20 DAT Bermudagrass (JSM 08-4) ('Tifway' bermudagrass [3]): 0%
- Weed Control 21 DAT Geranium carolinianum (Geranium carolinianum; Rate 0.007 kg ai/ha): 62%
- Weed Control 21 DAT Geranium carolinianum (Geranium carolinianum; Rate 0.029 kg ai/ha): 55%

Structure (SMILES): CS(=O)(=O)c1ccc(C(=O)C2C(=O)CCCC2=O)c([N+](=O)[O-])c1 [Mesotrione, 2-(4-methylsulfonyl-2-nitrobenzoyl)cyclohexane-1,3-dione]
- Weed Control 21 DAT Lamium amplexicaule (Lamium amplexicaule; Rate 0.28 kg ai/ha): 100%
- Weed Control 21 DAT Stellaria media (Stellaria media; Rate 0.28 kg ai/ha): 100%
- Visual Turfgrass Injury 7 DAT Zoysiagrass (JSM08-15) ('Meyer' zoysiagrass [4]; Rate 0.18 kg ai/ha): 18%
- Visual Turfgrass Injury 21 DAT Zoysiagrass (JSM08-15) ('Meyer' zoysiagrass [4]; Rate 0.18 kg ai/ha): 20%
- Visual Turfgrass Injury 7 DAT Zoysiagrass (JSM08-15) ('Meyer' zoysiagrass [4]; Rate 0.28 kg ai/ha): 22%
- Visual Turfgrass Injury 21 DAT Zoysiagrass (JSM08-15) ('Meyer' zoysiagrass [4]; Rate 0.28 kg ai/ha): 23%
- Visual Turfgrass Injury 7 DAT St. Augustinegrass (JSM08-14) ([5]; Rate 0.18 kg ai/ha): 38%
- Visual Turfgrass Injury 21 DAT St. Augustinegrass (JSM08-14) ([5]; Rate 0.18 kg ai/ha): 32%
- Visual Turfgrass Injury 7 DAT St. Augustinegrass (JSM08-14) ([5]; Rate 0.28 kg ai/ha): 40%
- Visual Turfgrass Injury 21 DAT St. Augustinegrass (JSM08-14) ([5]; Rate 0.28 kg ai/ha): 33%
- Visual Turfgrass Injury ~13 DAT Bermudagrass (JSM 08-4) ('Tifway' bermudagrass [6]): 12%
- Visual Turfgrass Injury ~20 DAT Bermudagrass (JSM 08-4) ('Tifway' bermudagrass [6]): 7%
- Visual Turfgrass Injury ~13 DAT Zoysiagrass (JSM08-6) ('Meyer' zoysiagrass [7]): 30%
- Visual Turfgrass Injury ~20 DAT Zoysiagrass (JSM08-6) ('Meyer' zoysiagrass [7]; rated 22 DAT): 0%
- Large Crabgrass Control 21 DAT (large crabgrass; Rate 0.175 kg ai/ha): 95%
- Large Crabgrass Control 51 DAT (large crabgrass; Rate 0.175 kg ai/ha): 78%
- Visual Turfgrass Injury ~13 DAT St. Augustinegrass (JSM 08-8) [8]: 5%
- Visual Turfgrass Injury ~20 DAT St. Augustinegrass (JSM08-8) [8]: 12%
- Turfgrass Injury 15 DAT St. Augustinegrass (St. Augustinegrass turf; Rate 0.42 kg ai/ha): 35%
- Visual Turfgrass Injury 7 DAT Bermudagrass (JSM 08-14) ('Tifway' bermudagrass [9]; Rate 0.18 kg ai/ha): 32%
- Visual Turfgrass Injury 21 DAT Bermudagrass (JSM 08-14) ('Tifway' bermudagrass [9]; Rate 0.18 kg ai/ha): 23%
- Visual Turfgrass Injury 7 DAT Bermudagrass (JSM 08-14) ('Tifway' bermudagrass [9]; Rate 0.28 kg ai/ha): 35%
- Visual Turfgrass Injury 21 DAT Bermudagrass (JSM 08-14) ('Tifway' bermudagrass [9]; Rate 0.28 kg ai/ha): 27%
- Weed Control 21 DAT Geranium carolinianum (Geranium carolinianum; Rate 0.28 kg ai/ha): 20%
- Turfgrass Injury 15 DAT Bermudagrass (bermudagrass turf [10]; Rate 0.42 kg ai/ha): 28%

Structure (SMILES): CCCOc1nn(C(=O)NS(=O)(=O)c2ccccc2C(=O)OC)c(=O)n1C [Propoxycarbazone, methyl 2-[(4,5-dihydro-4-methyl-5-oxo-3-propoxy-1H-1,2,4-triazole-1-carboxamido)sulfonyl]benzoate]
- Turfgrass Injury 15 DAT St. Augustinegrass (St. Augustinegrass turf; Rate 0.044 kg ai/ha): 0%
- Turfgrass Injury 15 DAT St. Augustinegrass (St. Augustinegrass turf; Rate 0.088 kg ai/ha): 0%
- Turfgrass Injury 15 DAT St. Augustinegrass (St. Augustinegrass turf; Rate 0.177 kg ai/ha): 0%
- Turfgrass Injury 15 DAT Bermudagrass (bermudagrass turf [10]; Rate 0.044 kg ai/ha): 0%
- Turfgrass Injury 15 DAT Bermudagrass (bermudagrass turf [10]; Rate 0.088 kg ai/ha): 0%
- Turfgrass Injury 15 DAT Bermudagrass (bermudagrass turf [10]; Rate 0.177 kg ai/ha): 0%

Structure (SMILES): CS(=O)(=O)c1ccc(C(=O)C2C(=O)CCCC2=O)c(Cl)c1COCC(F)(F)F [Tembotrione, 2-{2-chloro-4-mesyl-3-[(2,2,2-trifluoroethoxy)methyl]benzoyl}cyclohexane-1,3-dione]
- St. Augustinegrass injury (St. Augustinegrass): no injury was observed
- Bermudagrass Injury 23 DAT (bermudagrass turf [11]): 0%
- bermudagrass turf injury (bermudagrass turf [11]): 30-72%
